In US11857550B2, “Benzathine analogs” (University of Pittsburgh—Of the Commonwealth System of …, priority 2012, dated 2024):

Columns and labels:
[1] = system: human PBMC cells; assay: LPS-induced IL1β and TNFα cytokine release from PBMC cells (ELISA); assay type: cell-based; settings: LPS-exposed human PBMC
Description: (§1) FIGS. 20A-20J is a table depicting benzathine compounds, and assay results. PBMC cells (0.6 ml at 1.5*10^6/ml) were treated with 2 ug/ml LPS for 16 hrs along with each compound at different concentrations. IL1β and TNFα cytokine release were monitored by ELISA to calculate the IC50. U937 monocyte (0.6 ml at 1.5*10^6/ml) were treated with each compound at different concentrations for 16 h. Cells were then stained with Trypan blue to differentiate dead cells, and calculate the LD50. Therapeutic index (TI)=LD50/IC50. Compounds marked in red are high value targets (low IC50, high LD50) and require further testing in vivo.
(§2) Briefly, compounds were added to human PBMC cells at different concentrations that were exposed to […] and cytokine secretion was monitored by ELISA to determine the IC50. Compounds were also added to U937 monocytes at different concentrations, and cells were stained with trypan blue to determine the LD50. […] Several functional studies were undertaken to assess anti-inflammatory effects focusing on BC-1215.

[2] = system: U937 monocyte; assay: U937 monocyte Trypan blue cell death (LD50); assay type: cell-based, human; settings: U937 monocytes, 16 h
Description: as §1, §2

[3] = system: U937 tumor implants; assay: U937 tumor xenograft in nude mice; assay type: in vivo; settings: 30 ug/ml in the drinking water
Description: FIGS. 28A-281. […] A-E. Effect of BC-1258 and other compounds on growth of U937 tumor implants in nude mice, n=4 mice/group with drug concentration at 30 ug/ml in the drinking water. […] B. Tumor volume measurements over time (n=4 mice/group, *P<0.05 versus con). D. Tumor tissue from C were weighted and graphed (n=4 mice/group, *P<0.05 versus con). E. Tumors from three controls and three drug treated U937 implants in mice were collected at the end-point, and assayed for AuroraB, CaM and FBXL2 proteins by immunoblotting. F-I. Serum of each mice were collected at the end point and processed for creatinine, LDH, ALT and creatine kinase activity.

[4] = system: MLE cells; assay: BrdU/7-AAD FACS cell cycle and apoptosis analysis; assay type: cell-based, murine
Description: FIGS. 27A-27G. […] A. PBMCs from 5 controls, AML, and ALL subjects were cultured in RPMI medium for 18 h. Cells were then collected, lysed, and assayed for protein immunoblotting. B-D. Human leukemia cells (U937, K562 and THP1 cells) were treated with BC-1258 at different concentrations for 16 h. Cells were collected and assayed for Aurora B, cyclin D2, cyclin D3 and FBXL2 immunoblotting. E-F. MLE cells were treated with BC-1258 at different concentrations for 16 h, cells were processed by BrdU uptake and 7-AAD staining followed by FACS cell cycle analysis (E), 2N, 4N, and 8N DNA histograms were quantitated and graphed in (F). G. Quantification of FACS analysis showing levels of apoptotic MLE cells after BC-1258 treatment at each time point.

[5] = system: mice; assay: Cigarette smoke induced chronic lung inflammation; assay type: in vivo; settings: 100 ug i.p. after 5 weeks smoke, 18 h
Description: FIGS. 22A-22C. […] Mice were exposed to cigarette smoke for 5 weeks before one does of i.p. injection of BC1261 (100 ug), 18 h later, mice were euthanized and lungs were lavaged with saline, harvested, and then homogenized. Lavage protein, cell counts and cytokine secretion were measured in (A-C). The data represent n=3 mice/group, *P<0.05 versus con.

[6] = system: C57BL6 mice; assay: DSS induced (acute) colitis; assay type: in vivo; settings: 150 μg daily i.p. or 30 μg/ml drinking water, 3.5% DSS
Description: FIGS. 17A-17D. BC-1215 reduces DSS induced colonic inflammation. FIGS. 17A-FIG. 17C. C57BL6 mice were fed with water containing 3.5% dextran sulfate sodium (DSS) for up to five days. Mice were treated with either vehicle or 100 ug of BC-1215 daily (via IP injection). Mice were then euthanized; the length of the colon was measured and graphed in (FIG. 17A). Colonic tissues were also analyzed for IL1β (FIG. 17B) and TNFα (FIG. 17C) by ELISA. (n=4 mice/group, *p<0.05 versus DSS) FIG. 17D, H&E staining was performed on colonic samples. (n=4 mice/group, *p<0.05 versus DSS)
FIGS. 24A-24E. […] A-D. C57BL6 mice were fed with water ad lib containing 3.5% dextran sulfate sodium (DSS) for up to five days. Mice were treated with either vehicle (control [CON]) or BC-1261 (150 μg) daily (via an i.p. injection), or BC-1261 were administered into drinking water at 30 μg/ml (po). Mice were then euthanized and the length of the colon was measured and graphed in (A-B). Colonic tissues were also analyzed for TNFα (C) and IL6(D). E. H&E staining was performed on colonic sections. The data represent n=4 mice/group, *P<0.05 versus DSS and **P<0.05 versus CON.
BC-1215 ameliorates DSS induced colitis. BC-1215 was also tested in a mouse colitis model to confirm its anti-inflammatory activity. Briefly, C57BL6 mice were fed with water containing 3.5% dextran sulfate sodium (DSS) for up to five days. Mice were treated with either vehicle or 200 ug of BC-1215 daily (via IP injection). Mice were then euthanized; the length of colons was measured. […] Colonic tissue cytokine levels were analyzed. […] Thus, the FBXO3 inhibitor BC-1215 suppresses inflammation in chemical induced colitis model in mice.

[7] = system: C57BL6 mice; assay: DSS induced chronic colonic inflammation; assay type: in vivo; settings: 30 μg/ml drinking water from day 7, 2% DSS cycles
Description: FIGS. 25A-25J. […] A. C57BL6 mice were fed with water ad lib containing 2% dextran sulfate sodium (DSS) for six days, then switch to water for up to three cycles. BC-1261 was administered into drinking water at 30 μg/ml, starting at day 7. Mice were euthanized at the end of the experiment and the length of the colon was measured and graphed in (B-C). Disease index was measured and graphed in (D). Serum cytokine levels were measured in (E-F). Colonic tissues cytokines and MPO activity were also analyzed (GJ). The data represent n=7 mice/group, *P<0.05 versus CON.

[8] = system: C57BL6 mice; assay: Pseudomonas aeruginosa PA103 pneumonia model; assay type: in vivo; settings: i.p., PA103 2.5*10^4 cfu/mouse i.t., 18 h
[9] = system: C57BL6 mice; assay: TPA induced ear edema; assay type: in vivo; settings: various doses to ears 30 min after TPA, 18 h
Description: FIGS. 15A-15C. […] FIG. 15A-15C. C57BL6 mice were deeply anesthetized with ketamine (80-100 mg/kg i.p.) and xylazine (10 mg/kg i.p.). 20 μl of ethanol solution of BC-1215 was applied to ears at 8, 40, 200 ug/ear 30 min after TPA administration (2 μg/ear). Comparisons included equal volumes of ethanol (vehicle control). 18 h after TPA administration, mice were euthanized; the thickness of the ear was measured using a micrometer (FIG. 15B). Ear punch biopsies were also taken immediately, weighed and graphed (FIG. 15C).
FIGS. 23A-23D. […] Different dose of BC-1261 was applied to ears of mice at various doses 30 min after TPA administration (2 μg/ear). A. Gross comparisons were made with equal volumes of ethanol as a vehicle control (CON). 18 h after TPA administration, mice were euthanized and the thickness of the ear was measured using a micrometer (B). Autopsy sample were also taken to measure MPO activity (C) and calculate ear edema (D). The data represent n=6 mice/group, *P<0.05 versus TPA.
Topical application of BC-1215 as an anti-inflammatory agent was tested in a model of 12-O-tetradecanoylphorbol-13-acetate (TPA) induced ear edema (Bralley et. al., J Inflamm (LOnd), 2008. 5:p.1). Briefly, 20 μl of an ethanol solution of BC-1215 was applied to ears of mice at 8, 40, and 200 ug/ear for 30 min after TPA administration (2 μg/ear). Comparisons included equal volumes of ethanol (vehicle control). 18 h after TPA administration, mice were euthanized; the thickness of the ear was measured using a micrometer. Ear punch biopsies were also taken immediately, weighed, and graphed.

SMILES	IC50 (cytokine secretion) [1]	LD50 [2]	also measured
c1cn(-c2ccc(CNCCNCc3ccc(-n4ccnc4)cc3)cc2)cn1 [BC-1207]	high	low	
Fc1ccc(CNCCNCc2ccc(-c3ccccn3)cc2)cc1 [BC-1241]	high	low	
c1cnn(-c2ccc(CNCCNCc3ccc(-n4cccn4)cc3)cc2)c1 [BC-1250]	high	low	
c1csc(-c2ccc(CNCCNCc3ccc(-c4nccs4)cc3)cc2)n1 [BC-1258]			tumor growth [3]: suppresses tumor growth in xenograft; apoptosis [4]: apoptosis; cell cycle arrest ([4]; different concentrations, 16 h): Induces G2/M arrest
c1cnc(-c2ccc(CNCCNCc3ccc(-c4ncccn4)cc3)cc2)nc1 [BC-1261]	high	low	smoke induced chronic lung inflammation [5]: reduces smoke induced chronic lung inflammation; DSS induced acute colonic inflammation [6]: reduces DSS induced acute colonic inflammation; DSS induced chronic colonic inflammation [7]: reduces DSS induced chronic colonic inflammation; P. aeruginosa induced lung inflammation [8]: reduces P. aeruginosa induced lung inflammation; TPA induced ear edema [9]: reduces TPA induced ear edema
